# Test results from US12292445B2, “Methods of selecting subjects for treatment with metabolomic modulators” (priority 2018, dated 2025).
# Legend:
# SPF Swiss Webster mice = assay: 6-Hz psychomotor seizure assay; format: in vivo; conditions: SPF mice fed CD, oral gavage 13.3 mg/kg every 12 hours for 3 days, vs vehicle
# Procedure: The 6-Hz test was conducted as previously described. […] All subsequent experimental cohorts contained male mice. One drop (˜50 ul) of 0.5% tetracaine hydrochloride ophthalmic solution was applied to the corneas of each mouse 10-15 min before stimulation. Corneal electrodes were coated with a thin layer of electrode gel (Parker Signagel). A constant-current current device (ECT Unit 57800, Ugo Basile) was used to deliver current at 3 sec duration, 0.2 ms pulse-width and 6 pulses/s frequency. CC50 (the intensity of current required to elicit seizures in 50% of the experimental group) was measured as a metric for seizure susceptibility. […] Locomotor behavior was recorded using Ethovision XT software (Noldus) and quantitative measures for falling, tail dorsiflexion (Straub tail), forelimb clonus, eye/vibrissae twitching and behavioral remission were scored manually. […] Latency to exploration (time elapsed from when an experimental mouse is released into the observation cage (after corneal stimulation) to its first lateral movement) was scored using Ethovision and manually with an electronic timer. […] Seizure threshold (CC50) was determined as previously described, using the average log interval of current steps per experimental group, where sample n is defined as the subset of animals displaying the less frequent seizure behavior. […]
# Kcnal−/− mice = assay: Kcnal seizure recordings (EEG); format: in vivo, mouse; conditions: CD-fed SPF Kcnal−/− mice, oral gavage 13.3 mg/kg every 12 hours
# Procedure: EEGs were recorded from male and female Kcnal^−/− mice at 6-7 weeks of age. Kcnal^+/+ littermates were used as controls. There were no significant differences observed between males and females in seizure frequency and duration. Data presented include both sexes. Mice were anesthetized with isoflurane (5% induction, 2% maintenance) and eye ointment applied to each eye. Fur was removed along the head, and the area was cleaned with three alternative scrubs of chlorohexidine and 70% isopropanol. In a biosafety cabinet, mice were positioned in a stereotaxic apparatus (Harvard Biosciences) and 1 mg/kg lidocaine +1 mg/kg bupivacaine was applied locally along the incision site. […]
# During EEG recordings, animals were freely moving and maintained on experimental diet. […] Simultaneous video recordings of behavioral seizures were correlated with EEG recordings and scored based on an adapted Racine scale and defined by 5 stages: 1) myoclonic jerk, 2) head stereotypy and facial clonus, 3) bilateral and alternating forelimb/hindlimb clonus, 4) rearing and falling, and 5) generalized tonic-clonic episodes. Data were analyzed by a blinded researcher using Neuroscore CNS Software (DSI). EEG signals were filtered using a 10 Hz high pass filter, and seizure events were detected by blinded manual scoring. […]
# [1] = system: gamma-glutamyltranspeptidase (GGT); assay: GGT activity assay, fecal samples exposed to GGsTop; format: biochemical, mouse; conditions: all fecal samples (SPF CD, SPF KD, AkkPb KD, AkkPb CD), 500 uM GGsTop
# Procedure: GGT activity was measured as previously described. For anaerobic cultures, bacteria were seeded at 3×10^5 cfu/ml in CD- and KD-based media. 1 ml bacterial suspension was pelleted and frozen at −80° C. for 1 hr. Separate aliquots of the same suspension were plated in BHI mucin agar media or RCM and incubated at 37° C. in a Coy anaerobic chamber for later data normalization by bacterial cfu. Pellets were then resuspended in 250 ul lysis buffer (50 mM Tris-HCl with 1 ug/ml lysozyme) and incubated on ice for 30 min. For fecal samples, one pellet was weighed and homogenized in 1 ml lysis buffer. Bacterial and fecal suspensions were then sonicated (QSonica 125) and centrifuged at 12000×g for 10 min at 4° C. 20 ul supernatant was mixed with 180 ul substrate buffer (2.9 mM L-gamma-glutamyl-3-carboxy-4-nitroanilide (Gold Bio), 100 mM of glycylglycine (Sigma Aldrich), 100 mM Tris-HCl), and 500 uM GGsTop (if noted). Absorbance at 405 nm denoting production of 3-carboxy-4-nitroaniline was measured every minute for 1 hr at 37° C. using an automated multimode plate reader (Biotek Synergy H1).
# [2] = system: gamma-glutamyltranspeptidase (GGT); assay: GGT activity assay in cultured P. merdae; format: biochemical, Parabacteroides merdae; conditions: conventionally-cultured P. merdae, 500 uM GGsTop vs vehicle
# Procedure: (§1) Cross-feeding was measured as previously described. A. muciniphila was embedded at 2×10^6 cfu/ml in 5 ml pre-reduced CD or KD-based liquid media supplemented with 1% agar at the bottom of an anaerobic tube, and P. merdae was overlaid above it at 6×10^6 cfu/ml in 5 ml pre-reduced M9 minimal media. Diet-based media were generated by aseptically suspending mouse KD vs. CD diets, described above, to 2 kcal/ml in M9 media. Pilot experiments confirmed no ectopic translocation of embedded A. muciniphila from the agar compartment into the above M9 liquid compartment. For each time point, aliquots were taken from the top and bottom compartments, plated in a dilution series in rich media (RCM for P. merdae and BHI +0.05% mucins for A. muciniphila), and colonies were counted. For GGsTop pre-treatment experiments, P. merdae was incubated with 500 uM GGsTop vs vehicle in RCM media at 37° C. for 2 hours and then washed with sterile media.
# GGT activity was measured as previously described. For anaerobic cultures, bacteria were seeded at 3×10^5 cfu/ml in CD- and KD-based media. 1 ml bacterial suspension was pelleted and frozen at −80° C. for 1 hr. […] Absorbance at 405 nm denoting production of 3-carboxy-4-nitroaniline was measured every minute for 1 hr at 37° C. using an automated multimode plate reader (Biotek Synergy H1).
# A. muciniphila = assay: Cross-feeding in vitro assay, A. muciniphila growth; format: cell-based, Akkermansia muciniphila; conditions: A. muciniphila in CD agar exposed to P. merdae pre-treated with 500 uM GGsTop vs vehicle, 24 hours
# Procedure: as §1
# P. merdae = assay: Cross-feeding in vitro assay, P. merdae viability after GGsTop pre-treatment; format: cell-based, Parabacteroides merdae; conditions: 500 uM GGsTop pre-treatment, 2 hours, 37° C., pilot experiments
# Procedure: as §1
smiles,measurement,setting,value
"COP(=O)(CCC(N)C(=O)O)Oc1cccc(CC(=O)O)c1 (stereo not drawn) [GGsTop, 3-[[(3-amino-3-carboxypropyl)methoxyphosphinyl]oxy]benzeneacetic acid]",6-Hz seizure threshold (CC50),SPF Swiss Webster mice,increases in seizure thresholds toward levels seen in SPF KD mice
same,seizures per day (EEG),Kcnal−/− mice,significant decrease in seizures per day
same,fecal GGT activity signal,[1],eliminated the detected signals
same,GGT activity in P. merdae,[2],ablated
same,A. muciniphila growth,A. muciniphila,increased growth
same,P. merdae viability,P. merdae,no significant effect
